Results as given in the NIST ThermoML archive (doi:10.1021/je201102x).
Numbers after ± are expanded uncertainties.

Experiment: xn = mol fraction of the nth substance listed
Conditions: 101 kPa, Liquid, Vibrating tube method

CC(=O)O [acetic acid] + CCC(C)O
mass density [kg/m3]
Conditions | 293.15 K | 298.15 K | 303.15 K | 313.15 K | 323.15 K | 333.15 K
x1 = 0.0822 | 819.04 ± 0.22 | 814.82 ± 0.22 | 810.53 ± 0.22 | 801.69 ± 0.22 | 792.5 ± 0.22 | 782.93 ± 0.22
x1 = 0.1628 | 832.16 ± 0.2 | 827.83 ± 0.2 | 823.44 ± 0.2 | 814.46 ± 0.21 | 805.17 ± 0.21 | 795.54 ± 0.21
x1 = 0.2395 | 845.65 ± 0.19 | 841.23 ± 0.19 | 836.76 ± 0.19 | 827.62 ± 0.19 | 818.22 ± 0.19 | 808.51 ± 0.19
x1 = 0.321 | 861.12 ± 0.17 | 856.58 ± 0.17 | 852 ± 0.17 | 842.7 ± 0.18 | 833.16 ± 0.18 | 823.36 ± 0.18
x1 = 0.3979 | 876.8 ± 0.16 | 872.17 ± 0.16 | 867.49 ± 0.16 | 858.02 ± 0.16 | 848.33 ± 0.16 | 838.39 ± 0.16
x1 = 0.4759 | 893.89 ± 0.14 | 889.16 ± 0.14 | 884.37 ± 0.14 | 874.69 ± 0.15 | 864.83 ± 0.15 | 854.77 ± 0.15
x1 = 0.5611 | 914 ± 0.13 | 909.12 ± 0.13 | 904.22 ± 0.13 | 894.32 ± 0.13 | 884.26 ± 0.13 | 874 ± 0.14
x1 = 0.6399 | 934.04 ± 0.11 | 929.04 ± 0.11 | 924.01 ± 0.12 | 913.87 ± 0.12 | 903.62 ± 0.12 | 893.19 ± 0.12
x1 = 0.7197 | 955.97 ± 0.1 | 950.84 ± 0.1 | 945.68 ± 0.1 | 935.3 ± 0.11 | 924.81 ± 0.11 | 914.19 ± 0.11
x1 = 0.8003 | 980.06 ± 0.09 | 974.78 ± 0.09 | 969.49 ± 0.09 | 958.84 ± 0.1 | 948.1 ± 0.1 | 937.26 ± 0.1
x1 = 0.8796 | 1005.8 ± 0.09 | 1000.35 ± 0.09 | 994.91 ± 0.09 | 983.99 ± 0.09 | 973.01 ± 0.09 | 961.97 ± 0.09
x1 = 0.9365 | 1025.67 ± 0.09 | 1020.12 ± 0.09 | 1014.58 ± 0.09 | 1003.46 ± 0.09 | 992.31 ± 0.09 | 981.11 ± 0.09
x1 = 0.9586 | 1033.71 ± 0.09 | 1028.12 ± 0.09 | 1022.54 ± 0.09 | 1011.36 ± 0.09 | 1000.14 ± 0.09 | 988.87 ± 0.09
